“And” between values parts separate entries of the source, which are not always exact repeats. Equal entries are not always repeated. Where a SMILES comes first, the peptide text is derived from it. [ ]: non-standard residue; d: D form. The star is where a group is joined. X1 = CN1C(=CC=CC=CC2=[N+](CCCCCC(=O)NCCN3C(=O)CC(*)C3=O)c3ccccc3C2(C)C)C(C)(C)c2ccccc21; Aib = CC(C)(N)C(=O)O
How the values were obtained:
[1] = system: Glp1r^WT/WT, Glp1r^WT/KO and Glp1r^KO/KO mice; assay: Glucose tolerance testing (IPGTT); type: in vivo, mouse; design: Area under the curve for IPGTT: unit not given beside the values; conditions: for Area under the curve for IPGTT: individual mice
Procedure: Glucose was measured in blood from the tail vein at 0, 15, 30, 60, 90 and 120 min post glucose challenge. Mice were socially housed in specific-pathogen-free conditions under a 12 h light–dark cycle with ad libitum access to food and water, relative humidity 55 ± 10% and temperature 21 ± 2 °C.

[2] = system: C57BL/N mice; assay: Food intake study (FED3 devices); type: in vivo, mouse; conditions: 10 nmol kg^−1 s.c., dark phase and cumulative 24 h, n = 8 mice
Procedure: Male and female 12–14 week old C57BL/N mice were singly housed in a 12 h dark–light cycle (14:00–02:00 h) and habituated to FED3 feeding devices for 7 days before commencing the study. All mice were kept on a 12 h light–dark cycle at 20–24 °C and 45–65% relative humidity (typically 21 °C and 55%). On test days, mice were fasted for 3 h before onset of the dark phase by removal of the FED3 devices. […] The study was performed using a three-way crossover design. A 1-week washout period was observed between experimental days. FED3 devices were checked, serviced and food was topped up daily.

[3] = system: MIN6-CB4 β cells; assay: MIN6-CB4 cell fluorescent probe labelling, colocalization; type: cell-based
Procedure: MIN6-CB4 cells were generated and phenotyped, as previously described. Cells were grown to 70% confluency in MIN6 media (DMEM High Glucose supplemented with 15% FBS, 71 μM 2-mercaptoethanol, 2 mM glutamine, 100 units ml^−1 penicillin, 100 μg ml^−1 streptomycin). Cells were then seeded in 100 μl MIN6 media per well, on a glass-bottomed 96-well imaging plate previously coated with poly-L-lysine 0.01%.
Probe labelling was analysed using corrected total cell fluorescence, which is integrated density − (area of selected cell × mean fluorescence of background readings)[52],[53]. Colocalization was determined using Manders’ coefficient, which calculates the proportion of pixels in one channel that also show intensity from both channels. Full width at half maximum was used to analyse labelling patterns at the membrane versus cytoplasm. All analyses were performed in ImageJ (NIH), with brightness and contrast linearly adjusted across the entire image for presentation purposes and applied equally between all states under examination.

[4] = biological target: T1, Nluc–GIPR (hGIPR) (Homo sapiens, UniProt P48546); assay: NanoBRET saturation binding assay, HEK293T cells
T1 construct: expressed in transfected cells; host or cells: HEK293T cells, transient expression
T1 sequence (P48546 22-466): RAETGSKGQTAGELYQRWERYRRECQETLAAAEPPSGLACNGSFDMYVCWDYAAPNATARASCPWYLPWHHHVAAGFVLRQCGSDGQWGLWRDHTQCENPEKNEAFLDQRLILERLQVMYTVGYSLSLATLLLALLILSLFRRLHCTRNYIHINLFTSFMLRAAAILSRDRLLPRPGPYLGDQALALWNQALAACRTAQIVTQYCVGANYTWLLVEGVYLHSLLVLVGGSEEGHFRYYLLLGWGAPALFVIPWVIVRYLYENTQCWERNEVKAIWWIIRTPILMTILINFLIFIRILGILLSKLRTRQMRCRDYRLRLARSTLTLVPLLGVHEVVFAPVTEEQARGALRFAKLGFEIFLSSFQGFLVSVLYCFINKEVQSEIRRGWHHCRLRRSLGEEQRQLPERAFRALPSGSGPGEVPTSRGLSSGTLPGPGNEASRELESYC
Procedure: HEK293T cells (RRID:CVCL_0063) were cultured in DMEM/F12 GlutaMAX (ThermoFisher), supplemented with 10% FBS and 1% antibiotic-antimycotic solution and cultured at 37 °C, 5% CO2. HEK293T cells were authenticated at source using STR profiling. […] Media was then removed and the cells were incubated in PBS supplemented with 0.1% BSA and 0.01% NanoGlo (Promega). […] Plates were read using a PheraSTAR microplate reader, using the NanoBRET filter module. BRET ratios (λacceptor/λdonor) were calculated, and saturation data fit using the ‘One Site – Specific Binding’ equation of GraphPad Prism 10. Competition binding was fit using the ‘One Site – Fit Ki’ equation.

[5] = daLUXendin660 (tirz Cy5 500nM) vs LUXendin551 (100nM), image 2022.05.06 1-1
[6] = daLUXendin660 (tirz Cy5 500nM) vs LUXendin551 (100nM), image 2022.05.06 1-2
[7] = daLUXendin660 (tirz Cy5 500nM) vs LUXendin551 (100nM), image 2022.05.06 1-3
[8] = daLUXendin660 (tirz Cy5 500nM) vs LUXendin551 (100nM), image 2022.05.06 1-4
[9] = daLUXendin660 (tirz Cy5 500nM) vs LUXendin551 (100nM), image 2022.05.06 2-1
[10] = daLUXendin660 (tirz Cy5 500nM) vs LUXendin551 (100nM), image 2022.05.06 2-2
[11] = daLUXendin660 (tirz Cy5 500nM) vs LUXendin551 (100nM), image 2022.05.06 2-3
[12] = daLUXendin660 (tirz Cy5 500nM) vs LUXendin551 (100nM), image 2022.05.06 2-4
[13] = daLUXendin660 (tirz Cy5 500nM) vs LUXendin551 (100nM), image 2022.05.12 1-1
[14] = daLUXendin660 (tirz Cy5 500nM) vs LUXendin551 (100nM), image 2022.05.12 1-2
[15] = daLUXendin660 (tirz Cy5 500nM) vs LUXendin551 (100nM), image 2022.05.12 1-3
[16] = daLUXendin660 (tirz Cy5 500nM) vs LUXendin551 (100nM), image 2022.05.12 1-4
[17] = daLUXendin660 (tirz Cy5 500nM) vs LUXendin551 (100nM), image 2022.05.12 2-1
[18] = daLUXendin660 (tirz Cy5 500nM) vs LUXendin551 (100nM), image 2022.05.12 2-2
[19] = daLUXendin660 (tirz Cy5 500nM) vs LUXendin551 (100nM), image 2022.05.12 2-3
[20] = daLUXendin660 (tirz Cy5 500nM) vs LUXendin551 (100nM), image 2022.05.12 2-4
[21] = daLUXendin660 (tirz Cy5 500nM) vs sGIP549 (JB2228 100nM), image 2022.05.06 1-1
[22] = daLUXendin660 (tirz Cy5 500nM) vs sGIP549 (JB2228 100nM), image 2022.05.06 1-2
[23] = daLUXendin660 (tirz Cy5 500nM) vs sGIP549 (JB2228 100nM), image 2022.05.06 1-3
[24] = daLUXendin660 (tirz Cy5 500nM) vs sGIP549 (JB2228 100nM), image 2022.05.06 1-4
[25] = daLUXendin660 (tirz Cy5 500nM) vs sGIP549 (JB2228 100nM), image 2022.05.06 2-1
[26] = daLUXendin660 (tirz Cy5 500nM) vs sGIP549 (JB2228 100nM), image 2022.05.06 2-2
[27] = daLUXendin660 (tirz Cy5 500nM) vs sGIP549 (JB2228 100nM), image 2022.05.06 2-3
[28] = daLUXendin660 (tirz Cy5 500nM) vs sGIP549 (JB2228 100nM), image 2022.05.06 2-4
[29] = daLUXendin660 (tirz cy5 500nM) vs sGIP549 (JB2228 100nM), image 2022.05.12 1-1
[30] = daLUXendin660 (tirz cy5 500nM) vs sGIP549 (JB2228 100nM), image 2022.05.12 1-2
[31] = daLUXendin660 (tirz cy5 500nM) vs sGIP549 (JB2228 100nM), image 2022.05.12 1-3
[32] = daLUXendin660 (tirz cy5 500nM) vs sGIP549 (JB2228 100nM), image 2022.05.12 1-4
[33] = daLUXendin660 (tirz cy5 500nM) vs sGIP549 (JB2228 100nM), image 2022.05.12 2-1
[34] = daLUXendin660 (tirz cy5 500nM) vs sGIP549 (JB2228 100nM), image 2022.05.12 2-2
[35] = daLUXendin660 (tirz cy5 500nM) vs sGIP549 (JB2228 100nM), image 2022.05.12 2-3
[36] = daLUXendin660 (tirz cy5 500nM) vs sGIP549 (JB2228 100nM), image 2022.05.12 2-4

## CC[C@H](C)[C@H](NC(=O)[C@H](CC(C)C)NC(=O)[C@H](Cc1c[nH]c2ccccc12)NC(=O)[C@H](CCC(N)=O)NC(=O)[C@@H](NC(=O)[C@H](Cc1ccccc1)NC(=O)[C@H](C)NC(=O)[C@H](CCCCN)NC(=O)[C@H](CCC(N)=O)NC(=O)[C@H](C)NC(=O)[C@@H](NC(=O)[C@H](CCCCN)NC(=O)[C@H](CC(=O)O)NC(=O)[C@H](CC(C)C)NC(=O)C(C)(C)NC(=O)[C@@H](NC(=O)[C@H](CO)NC(=O)[C@H](Cc1ccc(O)cc1)NC(=O)[C@H](CC(=O)O)NC(=O)[C@H](CO)NC(=O)[C@@H](NC(=O)[C@H](Cc1ccccc1)NC(=O)[C@@H](NC(=O)CNC(=O)[C@H](CCC(=O)O)NC(=O)C(C)(C)NC(=O)[C@@H](N)Cc1ccc(O)cc1)[C@@H](C)O)[C@@H](C)O)[C@@H](C)CC)[C@@H](C)CC)C(C)C)C(=O)N[C@@H](C)C(=O)NCC(=O)NCC(=O)N1CCC[C@H]1C(=O)N[C@@H](CO)C(=O)N[C@@H](CO)C(=O)NCC(=O)N[C@@H](C)C(=O)N1CCC[C@H]1C(=O)N1CCC[C@H]1C(=O)N1CCC[C@H]1C(=O)N[C@@H](CSC1CC(=O)N(CCNC(=O)CCCCC[N+]2=C(C=CC=CC=C3N(C)c4ccccc4C3(C)C)C(C)(C)c3ccccc32)C1=O)C(N)=O (some centres unmarked) [daLUXendin660] (H-Y[Aib]EGTFTSDYSI[Aib]LDKIAQKAFVQWLIAGGPSSGAPPPC(X1)-NH2)
[1]; 10 nmol kg^−1, Glp1r^WT/WT and Glp1r^WT/KO mice
  effect on blood glucose in glucose tolerance test: substantial glucose-lowering effects
[1]; GLP1RKO/KO (KO) mice
  Area under the curve for IPGTT: 1726.5 and 1785 and 1967.25 and 1908.75 and 1827 and 1220.25 and 1424.25
[1]; GLP1RWT/WT and GLP1RWT/KO (WT) mice
  Area under the curve for IPGTT: 2001 and 1668.75 and 1041.75 and 969.75 and 1068
[1]; KO mice, group mean (n = 6 TZP, n = 7 daLUX)
  Area under the curve for IPGTT, mean: 1694
[1]; WT mice, group mean (n = 6 TZP, n = 5 daLUX)
  Area under the curve for IPGTT, mean: 1350
[1]; WT mice, one-way ANOVA, Benjamini, Krieger and Yekutieli
  Area under the curve for IPGTT, Mean Diff. WT Veh vs. WT treated: 966.4
[1]; WT vs. KO mice, one-way ANOVA, Benjamini, Krieger and Yekutieli
  Area under the curve for IPGTT, Mean Diff. WT treated vs. KO treated: -344.3
[2]
  effect on food intake: reduced food intake
[3]; [5]
  Manders' R: 0.82
  Pearson's: 0.663
[3]; [6]
  Manders' R: 0.763
  Pearson's: 0.555
[3]; [7]
  Manders' R: 0.866
  Pearson's: 0.756
[3]; [8]
  Manders' R: 0.82
  Pearson's: 0.61
[3]; [9]
  Manders' R: 0.849
  Pearson's: 0.778
[3]; [10]
  Manders' R: 0.803
  Pearson's: 0.595
[3]; [11]
  Manders' R: 0.811
  Pearson's: 0.656
[3]; [12]
  Manders' R: 0.83
  Pearson's: 0.66
[3]; [13]
  Manders' R: 0.861
  Pearson's: 0.826
[3]; [14]
  Manders' R: 0.847
  Pearson's: 0.812
[3]; [15]
  Manders' R: 0.799
  Pearson's: 0.723
[3]; [16]
  Manders' R: 0.766
  Pearson's: 0.713
[3]; [17]
  Manders' R: 0.8
  Pearson's: 0.745
[3]; [18]
  Manders' R: 0.809
  Pearson's: 0.769
[3]; [19]
  Manders' R: 0.825
  Pearson's: 0.795
[3]; [20]
  Manders' R: 0.894
  Pearson's: 0.914
[3]; [21]
  Manders' R: 0.9
  Pearson's: 0.838
[3]; [22]
  Manders' R: 0.901
  Pearson's: 0.809
[3]; [23]
  Manders' R: 0.886
  Pearson's: 0.756
[3]; [24]
  Manders' R: 0.894
  Pearson's: 0.818
[3]; [25]
  Manders' R: 0.899
  Pearson's: 0.824
[3]; [26]
  Manders' R: 0.894
  Pearson's: 0.796
[3]; [27]
  Manders' R: 0.901
  Pearson's: 0.822
[3]; [28]
  Manders' R: 0.878
  Pearson's: 0.769
[3]; [29]
  Manders' R: 0.862
  Pearson's: 0.834
[3]; [30]
  Manders' R: 0.735
  Pearson's: 0.645
[3]; [31]
  Manders' R: 0.775
  Pearson's: 0.722
[3]; [32]
  Manders' R: 0.833
  Pearson's: 0.821
[3]; [33]
  Manders' R: 0.823
  Pearson's: 0.764
[3]; [34]
  Manders' R: 0.748
  Pearson's: 0.736
[3]; [35]
  Manders' R: 0.968
  Pearson's: 0.975
[3]; [36]
  Manders' R: 0.784
  Pearson's: 0.683
[4]; Nluc-tagged hGIPR, NanoBRET saturation, n = 3 independent repeats
  Bmax best-fit (nM), hGIPR: 0.0080 nM
[4]; One site -- Specific binding, fit of all pooled points
  Bmax, best-fit value, GIPR: 0.01181

From publication PMC12373499 (Nature Metabolism, 2025)
